Laboratory results taken from patent publication US20260354380A1, “PYRAZOLO PESTICIDAL COMPOUNDS” (BASF SE, priority 2022, published 2026).

Columns and labels:
Type in all cases: in vivo
Anthonomus grandis = test: Action on Boll Weevil (Anthonomus grandis); details: 800 ppm; egg and larval mortality; 5 days
Summary of the method: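 Diet in 96-well plates, seeded with 5-10 A. grandis eggs, received a spray of formulated compound (25% DMSO in water) at a range of concentrations, duplicated. Mortality of eggs and larvae was judged by eye after 5 days at about 25±1 °C, 75±5% relative humidity.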

Heliothis virescens = test: Action on Tobacco Budworm (Heliothis virescens); details: 800 ppm; egg and larval mortality; 5 days
Summary of the method: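 Eggs (15-25 per well) on diet were held 5 days at about 28±1 °C, 80±5% RH, then egg and larval mortality was scored by eye. Beforehand the diet had been sprayed with compound dilutions formulated in water/DMSO 75:25 v/v, in two replicates.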

Spodoptera eridania = test: Action on Southern Armyworm (Spodoptera eridania), 2nd Instar Larvae; details: 300 ppm; 2nd instar larvae; 4 days after treatment
Summary of the method: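 2nd-instar Spodoptera eridania larvae (about 10–11 per pot) confined on sprayed, dried Lima bean plants (1st true leaf stage) in sealed bags. Spray solutions: acetone/water 1:1 plus 0.01% surfactant. Held 4 days near 25 °C, 20–40% RH; assessed for mortality and feeding reduction against untreated controls.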

Plutella xylostella = test: Action on Diamond Back Moth (Plutella xylostella), microtiter plates, insect diet, eggs; details: 800 ppm; egg and larval mortality; 5 days
Protocol: Example B8: Action on Diamond Back Moth (Plutella xylostella)
For evaluating control of diamond back moth (Plutella xylostella) the test unit consisted of 96-well-microtiter plates containing an insect diet and 15-25 P. xylostella eggs. The compounds or mixtures were formulated using a solution containing 75% water and 25% DMSO. Different concentrations of formulated compounds or mixtures were sprayed onto the insect diet at 5 μl, using a custom-built micro atomizer, at two replications. For experimental mixtures in these tests identical volumes of both mixing partners at the desired concentrations respectively, were mixed together. After application, microtiter plates were incubated at 28±1 °C, 80±5% RH for 5 days. Egg and larval mortality was then visually assessed.

Aedes aegypti = test: whole plant or invertebrate; details: 800 ppm; larvae; 2 days
Summary of the method: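 Visual larval mortality was assessed 2 days after treatment (28±1 °C, 80±5% RH). Formulations of compounds or mixtures (75% water/25% DMSO) were applied by micro-atomizer onto diet of 5-15 newly hatched larvae per water-filled well, two replicates per concentration.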

Row | Compound | mortality in comparison with untreated controls (Anthonomus grandis) | mortality in comparison with untreated controls (Heliothis virescens) | mortality in comparison with untreated controls (Spodoptera eridania) | mortality in comparison with untreated controls (Plutella xylostella) | mortality in comparison with untreated controls (Aedes aegypti)
1 | Cc1ccc(C(C)C)c(N2C(=O)CS/C2=N\C(=O)Nc2ccc(-n3cc(NC(=O)c4ccc(Cl)cc4Cl)c(C)n3)cc2)c1 [Example C-27] | at least 75% | at least 75% | at least 75% | at least 75% | 
2 | Cc1ccc(C(C)C)c(N2C(=O)CS/C2=N\C(=O)Nc2ccc(-n3cc(NC(=O)c4ccc(Cl)cc4)c(C)n3)cc2)c1 [Example C-29] | at least 75% | at least 75% | at least 75% | at least 75% | at least 50%
3 | Cc1ccc(C(C)C)c(N2C(=O)CSC2=NC(=O)Nc2ccc(-n3cc(NC(=O)c4ccc(S(C)(=O)=O)cn4)c(C)n3)cc2)c1 [Example C-38] | at least 75% | at least 75% | at least 75% | at least 75% | 
4 | Cc1ccc(C(C)C)c(N2C(=O)CSC2=NC(=O)Nc2ccc(-n3nc(C)c(NC(=O)c4ccc(OC(F)(F)F)cc4)c3C)c(Cl)c2)c1 [Example C-45] | at least 75% | at least 75% | at least 75% | at least 75% | at least 50%
5 | Cc1ccc(C(C)C)c(N2C(=O)CSC2=NC(=O)Nc2ccc(-n3cc(NC(=O)c4ccc(OC(C)C)cc4)c(C)n3)cc2)c1 [Example C-48] |  | at least 75% | at least 75% | at least 75% | 
6 | Cc1ccc(C(C)C)c(N2C(=O)CSC2=NC(=O)Nc2ccc(-n3cc(NC(=O)c4ccc(C5COC5)cc4)c(C)n3)cc2)c1 [Example C-52] | at least 75% | at least 75% |  | at least 75% | 
7 | Cc1ccc(C(C)C)c(N2C(=O)CSC2=NC(=O)Nc2ccc(-n3cc(NC(=O)c4ccc([N+](=O)[O-])cc4)c(C)n3)cc2)c1 [Example C-54] | at least 75% | at least 75% | at least 75% | at least 75% | at least 50%
8 | Cc1ccc(C(C)C)c(N2C(=O)CSC2=NC(=O)Nc2ccc(-n3cc(NC(=O)c4ccc(N=S(C)(C)=O)cc4)c(C)n3)cc2)c1 [Example C-55] | at least 75% |  |  | at least 75% | 
9 | Cc1ccc(C(C)C)c(N2C(=O)CSC2=NC(=O)Nc2ccc(-n3cc(NC(=O)c4ccc(C(C)(C)C#N)cc4)c(C)n3)cc2)c1 [Example C-56] |  | at least 75% | at least 75% | at least 75% | 
10 | Cc1ccc(C(C)C)c(N2C(=O)CSC2=NC(=O)Nc2ccc(-n3cc(NC(=O)c4ccc(S(C)(=O)=O)c(F)c4)c(C)n3)cc2)c1 [Example C-57] |  | at least 75% |  | at least 75% | 
11 | Cc1ccc(C(C)C)c(N2C(=O)CSC2=NC(=O)Nc2ccc(-n3cc(NC(=O)c4ccc(C5CCC5)cc4)c(C)n3)cc2)c1 [Example C-58] | at least 75% | at least 75% |  | at least 75% | 
12 | Cc1ccc(C(C)C)c(N2C(=O)CSC2=NC(=O)Nc2ccc(-n3cc(NC(=O)c4ccc(Cl)nc4)c(C)n3)cc2)c1 [Example C-66] | at least 75% | at least 75% |  | at least 75% | at least 50%
13 | Cc1ccc(C(C)C)c(N2C(=O)CSC2=NC(=O)Nc2ccc(-n3cc(NC(=O)c4cncnc4)c(C)n3)cc2)c1 [Example C-68] | at least 75% | at least 75% | at least 75% | at least 75% | 
14 | Cc1ccc(C(C)C)c(N2C(=O)CS/C2=N\C(=O)Nc2cc(Cl)c(-n3nc(C)c(NC(=O)c4ccc(OC(F)(F)F)cc4)c3C)cc2C)c1 [Example C-98] | at least 75% | at least 75% | at least 75% | at least 75% | at least 50%
15 | Cc1ccc(C(C)C)c(N2C(=O)CS/C2=N\C(=O)Nc2cc(C)c(-n3nc(C)c(NC(=O)c4ccc(OC(F)(F)F)cc4)c3C)cc2Cl)c1 [Example C-99] | at least 75% | at least 75% | at least 75% | at least 75% | at least 50%
16 | Cc1ccc(C(C)C)c(N2C(=O)CS/C2=N\C(=O)Nc2ccc(-n3nc(C)c(NC(=O)c4ccc(OC(F)(F)F)cc4)c3NCC3OCCO3)cc2)c1 [Example C-100] | at least 75% | at least 75% | at least 75% | at least 75% | at least 50%
17 | Cc1ccc(C(C)C)c(N2C(=O)CS/C2=N\C(=O)Nc2ccc(-n3nc(C)c(NC(=O)c4ccc(OC(F)(F)F)cc4)c3N)cc2)c1 [Example C-101] | at least 75% | at least 75% | at least 75% | at least 75% | at least 50%
18 | Cc1ccc(C(C)C)c(N2C(=O)CS/C2=N\C(=O)Nc2ccc(-n3nc(C)c(NC(=O)c4ccc(Cl)c(Cl)c4)c3C)cc2Cl)c1 [Example C-102] | at least 75% | at least 75% | at least 75% | at least 75% | at least 50%
19 | CCN(C(=O)c1ccc(Cl)c(Cl)c1)c1c(C)nn(-c2ccc(NC(=O)/N=C3\SCC(=O)N3c3cc(C)ccc3C(C)C)c(Cl)c2)c1C [Example C-103] | at least 75% | at least 75% | at least 75% | at least 75% | at least 50%
20 | Cc1ccc(C(C)C)c(N2C(=O)CS/C2=N\C(=O)Nc2c(C)cc(-n3nc(C)c(NC(=O)c4ccc(OC(F)(F)F)cc4)c3C)cc2Cl)c1 [Example C-105] | at least 75% | at least 75% | at least 75% | at least 75% | at least 50%
21 | Cc1ccc(C(C)C)c(N2C(=O)CSC2=NC(=O)Nc2ccc(-n3nc(C)c(NC(=O)c4ccc(F)c(Cl)c4)c3C)cc2)c1 [Example C-113] | at least 75% | at least 75% |  | at least 75% | at least 50%
22 | Cc1ccc(C(C)C)c(N2C(=O)CSC2=NC(=O)Nc2ccc(-n3nc(C)c(NC(=O)c4ccc(Br)c(C#N)c4)c3C)cc2)c1 [Example C-121] | at least 75% |  | at least 75% | at least 75% | at least 50%
23 | Cc1ccc(C(C)C)c(N2C(=O)CSC2=NC(=O)Nc2ccc(-n3nc(C)c(NC(=O)c4ccc(C(Cl)Cl)cc4)c3C)cc2)c1 [Example C-122] | at least 75% |  |  | at least 75% | 
24 | Cc1ccc(C(C)C)c(NC(=S)NC(=O)Nc2ccc(-n3cc(NC(=O)c4ccc(OC(F)(F)F)cc4)c(C)n3)cc2)c1 [Example C-127] | at least 75% | at least 75% | at least 75% | at least 75% | 
